{"source": "patent US20150031760A1", "about": "“PHARMACEUTICAL COMPOSITION FOR PREVENTING OR TREATING NERVOUS SYSTEM DISORDERS COMPRISING SULFURETIN OR PHARMACEUTICALLY ACCEPTABLE SALT THEREOF” (Research and Business Foundation SUNGKYUNKWAN UNIVERSITY, priority 2010, published 2015)", "key": {"mice": {"system": "mice", "test": "Scopolamine-induced cognitive impairment, spontaneous alternation behavior Y-maze test", "format": "in vivo", "conditions": "sulfuretin 1 mg/kg, p.o., one hour before test; scopolamine 0.5 mg/kg, i.p.", "description": "Male ICR mice (4-weeks-old, 18-20 g) were purchased from Koatech Co., Ltd. (Pyongtaek, Korea). Mice were housed 10 per cage, allowed access to water and food ad libitum, and maintained in constant temperature (23±1° C.) and humidity (55±5%) conditions under a 12 hour light/dark cycle (lights on 07:00 to 19:00 h). All experiments were conducted in accord with the NIH Guide for the Care and Use of Laboratory Animals and with the approval of the Institutional Animal Care and Use Committee of Sungkyunkwan University.\nThe spontaneous alternation behavior was measured by Y-maze which consists of a horizontal maze (30 cm long and 5 cm wide, with walls 12 cm high) with three arms (labeled A, B, and C). The maze floor and walls are constructed of dark grey, polyvinyl plastic. Mice were initially placed within one arm, and the number of alternations (i.e., consecutive entry sequences of ABC, CAB, or BCA but not BAB) and the number of arm entries were manually recorded for each mouse over an 8 minutes period. One hour before each test, the mice were given sulfuretin (0.25, 0.5, or 1 mg/kg, p.o.). After 30 minutes, memory impairment was induced by administering scopolamine (0.5 mg/kg, i.p.). […] The percentage alternation was calculated according to the following equation: Percentage alternation=[(Number of alternations)/(Total arm entries−2)]×100. […]"}, "[1]": {"test": "Free radical scavenging ability (antioxidant effect), DPPH test", "format": "biochemical", "conditions": "30 minutes", "description": "2,2-diphenyl-1-picrylhydrazyl (DPPH) was dissolved in 99.5% ethanol to a concentration of 0.1 mM. Sulfuretin was dissolved and diluted in ethanol to concentrations of 0.1, 1, 5, 10, 25, 50 and 100 μg/ml. 10 μl of the sample was added to 90 μl of DPPH and admixed several times with a pipette, and the mixture was incubated at room temperature for 30 minutes, and the absorbance at 517 nm was measured."}, "SH-SY5Y cells [2]": {"system": "SH-SY5Y cells", "test": "Inhibition of intracellular [Ca2+] influx (Fura-2-AM fluorescence)", "format": "cell-based, human", "conditions": "hydrogen peroxide-induced, 30 minutes pretreatment", "description": "(§1) The incubator was maintained at a temperature of 37° C., and a mixed gas of 95% air and 5% CO2 was continuously supplied thereto to provide suitable conditions for cell culture. The cells were cultured in a 6-well plate or a 96-well plate at each of densities of 1×10^6 and 2×10^4 cells/well 24 hours before the experiment. […] Sulfuretin was used in ethanol and used at a final concentration of 0.1% or less.\nIn order to measure inhibitory effects on intracellular [Ca^2+] influx caused by oxidative stress, cells were labeled with Fura-2-AM fluorescence, and quantitative analysis was carried out using a fluorescence meter. Specifically, 10 μl of 5 μM Fura-2-AM was added to each well of the 6-well plate (in which the cells have been cultured) and then allowed to react for 30 minutes. Herein, Fura-2-AM in the incubator was covered with a silver foil such that it would not be exposed to light. After completion of the incubation, the plate was pretreated with sulfuretin for 30 minutes, and then reacted with hydrogen peroxide for 30 minutes to induce the intracellular influx of [Ca^2+]. Then, the cells that reacted with the Fura-2-AM fluorescent substance were washed twice with cold HEPES and detached with HEPES. Then, the cells were centrifuged at 400 g for 3 minutes. The supernatant was removed carefully, stirred weakly with 0.5 ml of HEPES buffer, and then 150 μl was dispensed into each well of a fresh 96-well plate. The fluorescence of the sample dispensed into the fresh 96-well plate was measured at an excitation wavelength of […] and an emission wavelength of 520 nm using a fluorescence meter (Perkinelmer, USA).\nThe measured value was substituted into the following equation to calculate intracellular [Ca^2+] nM: […]"}, "SH-SY5Y cells [3]": {"system": "SH-SY5Y cells", "test": "Inhibition of mitochondrial membrane potential (MMP) damage (rhodamine-123)", "format": "cell-based, human", "conditions": "hydrogen peroxide-induced damage, 30 minutes pretreatment", "description": "as §1\nIn order to measure the inhibition of MMP damage, cells were labeled with rhodamine-123 fluorescence, and quantitative analysis was performed using a fluorescence meter. Specifically, the 6-well plate in which the cells have been cultured was pretreated with sulfuretin for 30 minutes and then reacted with hydrogen peroxide for 30 minutes to induce MMP damage. Then, 10 μl of 10 μM rhodamine-123 was added to each well of the plate and allowed to react for 30 minutes. Herein, rhodamine-123 in the incubator was covered with a silver foil such that it would not be exposed to light. The cells that reacted with the rhodamine-123 fluorescent substance were detached with cold PBS and centrifuged at 400 g for 3 minutes. The centrifugation process was repeated twice to wash the fluorescent substance. The washed cells were stirred briefly with 0.5 ml of PBS, and 100 μl was dispensed into each well of a fresh 96-well plate. The fluorescence of the cells was measured at an excitation wavelength of 480 nm and an emission wavelength of 530 nm using a fluorescence meter (Perkinelmer, USA).\nThe measured fluorescence was substituted into the following equation to calculate ΔΨm:\nΔΨm(%)=[(O.D. of control−O.D. of test group)/O.D. of control]×100"}}}
{"smiles": "O=C1/C(=C/c2ccc(O)c(O)c2)Oc2cc(O)ccc21", "note": "[sulfuretin]", "values": [{"measurement": "decrease of spontaneous alternation behavior induced by scopolamine", "setting": "mice", "result": "significantly inhibited"}, {"measurement": "free radical scavenging ability (inhibition)", "setting": "[1]; sulfuretin 0.1 μg/ml", "result": "≥ 10", "unit": "%"}, {"measurement": "free radical scavenging ability (inhibition)", "setting": "[1]; sulfuretin 1 μg/ml", "result": "≥ 18", "unit": "%"}, {"measurement": "free radical scavenging ability (inhibition)", "setting": "[1]; sulfuretin 5 μg/ml", "result": "≥ 58", "unit": "%"}, {"measurement": "free radical scavenging ability (inhibition)", "setting": "[1]; sulfuretin 10 μg/ml", "result": "≥ 70", "unit": "%"}, {"measurement": "free radical scavenging ability (inhibition)", "setting": "[1]; sulfuretin 25 μg/ml", "result": "≥ 71", "unit": "%"}, {"measurement": "free radical scavenging ability (inhibition)", "setting": "[1]; sulfuretin 50 μg/ml", "result": "≥ 73", "unit": "%"}, {"measurement": "free radical scavenging ability (inhibition)", "setting": "[1]; sulfuretin 100 μg/ml", "result": "≥ 75", "unit": "%"}, {"measurement": "intracellular [Ca2+] influx", "setting": "SH-SY5Y cells [2]; sulfuretin 0.1 μg/ml", "result": "≤ 566", "unit": "nM"}, {"measurement": "intracellular [Ca2+] influx", "setting": "SH-SY5Y cells [2]; sulfuretin 0.5 μg/ml", "result": "≤ 395", "unit": "nM"}, {"measurement": "intracellular [Ca2+] influx", "setting": "SH-SY5Y cells [2]; sulfuretin 1 μg/ml", "result": "≤ 371", "unit": "nM"}, {"measurement": "intracellular [Ca2+] influx", "setting": "SH-SY5Y cells [2]; sulfuretin 5 μg/ml", "result": "≤ 243", "unit": "nM"}, {"measurement": "MMP (ΔΨm)", "setting": "SH-SY5Y cells [3]; sulfuretin 0.1 μg/ml", "result": "≥ 56", "unit": "%"}, {"measurement": "MMP (ΔΨm)", "setting": "SH-SY5Y cells [3]; sulfuretin 0.5 μg/ml", "result": "≥ 62", "unit": "%"}, {"measurement": "MMP (ΔΨm)", "setting": "SH-SY5Y cells [3]; sulfuretin 1 μg/ml", "result": "≥ 91", "unit": "%"}, {"measurement": "MMP (ΔΨm)", "setting": "SH-SY5Y cells [3]; sulfuretin 5 μg/ml", "result": "≥ 98", "unit": "%"}]}
